From ChEMBL document CHEMBL1137904, “Design, synthesis, and evaluation of oxyanion-hole selective inhibitor substituents for the S1 subsite of factor Xa” (Bioorg Med Chem Lett, 2004) come the findings set out here.

The experiment can be described thus: In vitro inhibitory activity towards Coagulation factor X was determined using chromogenic substrate, MeO-COD-CHG-Gly-Arg-pNA.
For `N=C(N)c1ccc(N)cc1`, the Ki was found to be 197 µM. To `N=C(N)c1ccc(CO)cc1` belongs 55 µM; to `N=C(N)c1ccc(CCO)cc1`, 607 µM; to `N=C(N)c1ccc(CCN)cc1`, 750 µM.

In turn, `CS(=O)(=O)c1ccc(C(=N)N)cc1` yielded a Ki of 1800 µM. This Ki is about 2.4-fold higher than that of the compound before. To `CP(=O)(O)c1ccc2c(N)nccc2c1` belongs over 5000 µM; to `N=C(N)c1ccc(CN)cc1`, 429 µM; to `CN(C)c1ccc(P(C)(=O)O)cc1`, 4100 µM. To `N=C(N)c1ccc(O)cc1` belongs 30 µM. Compound `CS(=O)(=O)CCc1ccc(C(=N)N)cc1` registered an inhibitory constant (Ki) of 193 µM. To `CS(=O)(=O)Cc1ccc(C(=N)N)cc1` belongs over 5000 µM. Then `N=C(N)c1ccccc1` [BENZAMIDINE], with 349 µM.
